Values quoted from earlier work, collected in patent US20040115263A1, “Use of bupropion for treating restless legs syndrome” (priority 2002, published 2004).

Legend:
[1] = RLS patients

cases in which augmentation is a complicating feature (human, in vivo)	Structure (SMILES)	side effects reported [1]	efficacy in treating RLS (L-dopa given with a peripheral carboxylase inhibitor at a 10:1 ratio, patients)
	CC(C)C[C@H]1C(=O)N2CCC[C@H]2[C@]2(O)O[C@](NC(=O)[C@@H]3C=C4c5cccc6[nH]c(Br)c(c56)C[C@H]4N(C)C3)(C(C)C)C(=O)N12 [Bromocriptine]	transient nasal stuffiness and lightheadedness in one patient	
65-80%	N[C@@H](Cc1ccc(O)c(O)c1)C(=O)O [L-dopa]		effective
